The text below walks through data of US20240246977A1, “DEGRADATION OF BRUTON'S TYROSINE KINASE (BTK) BY CONJUGATION OF BTK INHIBITORS WITH E3 LIGASE LIGAND AND METHOD OF USE” (BeiGene Switzerland GmbH, priority 2021, published 2024).

In one test the test system is HEK-293 cells. In words: HEK-293 cytotoxicity detection (CellTiter-Glo). The format is cell-based. Particulars: Homo sapiens, 72 h, 72 h incubation, CellTiter-Glo luminescence, read-out: HEK293. An outline of the steps: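 HEK-293 cells exposed 72 h to 8 compounds doses (4-fold dilutions, top stock 5 mM at 500×) in 0.2% DMSO. Viability by CellTiter-Glo luminescence; inhibition normalised to DMSO high control and low control, IC50 from four-parameter curve fit.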
In general terms: In ATP-based viability assays light output follows the ATP content of the culture.

A further test has as its target BTK (Homo sapiens, UniProt Q06187). Briefly: BTK cell degradation in TMD-8 cells, HTRF assay. Further details: endogenous in cells; host or cells: TMD-8 cells. Type of test: cell-based. As to conditions: 6 h treatment, IC50 (DC50) of BTK degradation. An outline of the steps: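 TMD-8 cells treated 6 h with 8-dose series (6-fold dilutions, 0.2% DMSO final), then lysed and BTK quantified by HTRF (337/665/620 nm) after overnight antibody incubation at room temperature. Degradation normalized to DMSO high and low controls; DC50 and Dmax from four-parameter fit.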
A general note: TR-FRET usually uses a lanthanide donor and a delayed reading to cut background.

BTK, sequence (Q06187 whole entry): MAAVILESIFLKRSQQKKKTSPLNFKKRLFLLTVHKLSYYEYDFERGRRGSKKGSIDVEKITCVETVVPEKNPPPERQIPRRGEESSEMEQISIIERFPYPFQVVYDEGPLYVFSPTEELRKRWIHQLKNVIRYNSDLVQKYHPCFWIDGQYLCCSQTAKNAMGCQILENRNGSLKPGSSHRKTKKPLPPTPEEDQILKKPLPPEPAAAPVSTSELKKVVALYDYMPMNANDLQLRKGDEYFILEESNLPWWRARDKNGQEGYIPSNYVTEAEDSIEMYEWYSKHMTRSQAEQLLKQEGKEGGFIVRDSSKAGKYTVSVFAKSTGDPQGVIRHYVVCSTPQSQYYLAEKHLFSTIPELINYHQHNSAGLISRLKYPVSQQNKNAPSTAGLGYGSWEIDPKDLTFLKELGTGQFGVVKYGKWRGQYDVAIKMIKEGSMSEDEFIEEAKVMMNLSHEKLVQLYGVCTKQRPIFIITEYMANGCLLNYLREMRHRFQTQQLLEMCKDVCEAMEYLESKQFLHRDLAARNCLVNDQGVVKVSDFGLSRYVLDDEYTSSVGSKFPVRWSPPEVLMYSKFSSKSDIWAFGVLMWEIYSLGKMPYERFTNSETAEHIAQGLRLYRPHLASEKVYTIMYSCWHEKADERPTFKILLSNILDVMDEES

Turning to `Cc1cccc(NC(=O)c2ncc(-c3nn4c(c3C#N)Nc3ccc(N5CCN(CC6CCN(c7ccc(N8CCC(=O)NC8=O)cc7)CC6)CC5)cc3CC4)cc2C)n1` [Example B31, 5-(3-cyano-7-(4-((1-(4-(2,4-dioxotetrahydropyrimidin-1(2H)-yl)phenyl)piperidin-4-yl)methyl)piperazin-1-yl)-9,10-dihydro-4H-benzo[d]pyrazolo[1,5-a][1,3]diazepin-2-yl)-3-methyl-N-(6-methylpyridin-2-yl)picolinamide], the IC50 in the test on HEK-293 cells was 133 nM. This molecule also displayed a DC50 at BTK greater than 2000 nM.
The like results for `Cc1cccc(NC(=O)c2ncc(-c3nn4c(c3C(N)=O)Nc3ccc(N5CCN(CC6CCN(c7ccc(N8CCC(=O)NC8=O)cc7)CC6)CC5)cc3CC4)cc2C)n1` [Example B32, 7-(4-((1-(4-(2,4-dioxotetrahydropyrimidin-1(2H)-yl)phenyl)piperidin-4-yl)methyl)piperazin-1-yl)-2-(5-methyl-6-((6-methylpyridin-2-yl)carbamoyl)pyridin-3-yl)-9,10-dihydro-4H-benzo[d]pyrazolo[1,5-a][1,3]diazepine-3-carboxamide] were, in that order, 332 nM and 8.86 nM.
The like results for `Cc1cccc(NC(=O)c2ncc(-c3nn4c(c3C(N)=O)Nc3ccc(N5CCN(CCc6cc(F)c(C7CCC(=O)NC7=O)c(F)c6)CC5)cc3CC4)cc2C)n1` (centres unmarked) [Example B33, 7-(4-(4-(2,6-dioxopiperidin-3-yl)-3,5-difluorophenethyl)piperazin-1-yl)-2-(5-methyl-6-((6-methylpyridin-2-yl)carbamoyl)pyridin-3-yl)-9,10-dihydro-4H-benzo[d]pyrazolo[1,5-a][1,3]diazepine-3-carboxamide] were, in that order, 400 nM and 17.6 nM.
The like results for `Cc1cccc(NC(=O)c2ncc(-c3nn4c(c3C(N)=O)Nc3ccc(N5CCN(C6CC(c7ccc([C@H]8CCC(=O)NC8=O)cc7)C6)CC5)cc3CC4)cc2C)n1` (stereo partly drawn) [Example B34, (R)-7-(4-(3-(4-(2,6-dioxopiperidin-3-yl)phenyl)cyclobutyl)piperazin-1-yl)-2-(5-methyl-6-((6-methylpyridin-2-yl)carbamoyl)pyridin-3-yl)-9,10-dihydro-4H-benzo[d]pyrazolo[1,5-a][1,3]diazepine-3-carboxamide] were, in that order, 168 nM and 57.8 nM.
In the case of `Cc1cccc(NC(=O)c2cnc(-c3nn4c(c3C(N)=O)Nc3ccc(N5CCN(CC6CCN(c7ccc(N8CCC(=O)NC8=O)cc7)CC6)CC5)cc3CC4)cc2C)n1` [Example B36, 7-(4-((1-(4-(2,4-dioxotetrahydropyrimidin-1(2H)-yl)phenyl)piperidin-4-yl)methyl)piperazin-1-yl)-2-(4-methyl-5-((6-methylpyridin-2-yl)carbamoyl)pyridin-2-yl)-9,10-dihydro-4H-benzo[d]pyrazolo[1,5-a][1,3]diazepine-3-carboxamide], the IC50 in the test with HEK-293 cells is greater than 10000 nM. Besides, the DC50 on BTK is 47.2 nM.
The like results for `Cc1cccc(NC(=O)c2cnc(-c3nn4c(c3C(N)=O)Nc3ccc(N5CCN(CCc6cc(F)c(C7CCC(=O)NC7=O)c(F)c6)CC5)cc3CC4)cc2C)n1` (centres unmarked) [Example B37, 7-(4-(4-(2,6-dioxopiperidin-3-yl)-3,5-difluorophenethyl)piperazin-1-yl)-2-(4-methyl-5-((6-methylpyridin-2-yl)carbamoyl)pyridin-2-yl)-9,10-dihydro-4H-benzo[d]pyrazolo[1,5-a][1,3]diazepine-3-carboxamide] were, in that order, greater than 10000 nM and 15.2 nM.
The like results for `Cc1cccc(NC(=O)c2ccc(-c3nn4c(c3C(N)=O)Nc3ccc(N5CCN(CC6CCN(c7ccc(N8CCC(=O)NC8=O)cc7)CC6)CC5)cc3CC4)nc2C)n1` [Example B38, 7-(4-((1-(4-(2,4-dioxotetrahydropyrimidin-1(2H)-yl)phenyl)piperidin-4-yl)methyl)piperazin-1-yl)-2-(6-methyl-5-((6-methylpyridin-2-yl)carbamoyl)pyridin-2-yl)-9,10-dihydro-4H-benzo[d]pyrazolo[1,5-a][1,3]diazepine-3-carboxamide] were, in that order, greater than 10000 nM and 4.89 nM.
As to `Cc1cccc(NC(=O)c2ccc(-c3nn4c(c3C(N)=O)Nc3ccc(N5CCN(CCc6cc(F)c(C7CCC(=O)NC7=O)c(F)c6)CC5)cc3CC4)nc2C)n1` (centres unmarked) [Example B39, 7-(4-(4-(2,6-dioxopiperidin-3-yl)-3,5-difluorophenethyl)piperazin-1-yl)-2-(6-methyl-5-((6-methylpyridin-2-yl)carbamoyl)pyridin-2-yl)-9,10-dihydro-4H-benzo[d]pyrazolo[1,5-a][1,3]diazepine-3-carboxamide], the IC50 in the test with HEK-293 cells was greater than 10000 nM. Further, the 50% degradation concentration (DC50) on BTK was found to be 5.66 nM.
Consider `Cc1cncc(NC(=O)c2ccc(-c3nn4c(c3C(N)=O)Nc3ccc(N5CCN(CC6CCN(c7ccc(N8CCC(=O)NC8=O)cc7)CC6)CC5)cc3CC4)c(F)c2C)n1` [Example B40, 7-(4-((1-(4-(2,4-dioxotetrahydropyrimidin-1(2H)-yl)phenyl)piperidin-4-yl)methyl)piperazin-1-yl)-2-(2-fluoro-3-methyl-4-((6-methylpyrazin-2-yl)carbamoyl)phenyl)-9,10-dihydro-4H-benzo[d]pyrazolo[1,5-a][1,3]diazepine-3-carboxamide], for which the IC50 with HEK-293 cells is greater than 10000 nM. In addition, at BTK, half-maximal degradation (DC50) was put at 5.69 nM.
As for `CCc1cccc(NC(=O)c2ccc(-c3nn4c(c3C(N)=O)Nc3ccc(N5CCN(CC6CCN(c7ccc(N8CCC(=O)NC8=O)cc7)CC6)CC5)cc3CC4)c(F)c2C)n1` [Example B41, 7-(4-((1-(4-(2,4-dioxotetrahydropyrimidin-1(2H)-yl)phenyl)piperidin-4-yl)methyl)piperazin-1-yl)-2-(4-((6-ethylpyridin-2-yl)carbamoyl)-2-fluoro-3-methylphenyl)-9,10-dihydro-4H-benzo[d]pyrazolo[1,5-a][1,3]diazepine-3-carboxamide], in the test with HEK-293 cells, the IC50 was greater than 10000 nM. In addition, at BTK, the half-maximal degradation concentration (DC50) was 9.26 nM.
As for `Cc1cc(Cl)cc(NC(=O)c2ccc(-c3nn4c(c3C(N)=O)Nc3ccc(N5CCN(CC6CCN(c7ccc(N8CCC(=O)NC8=O)cc7)CC6)CC5)cc3CC4)c(F)c2C)n1` [Example B42, 2-(4-((4-chloro-6-methylpyridin-2-yl)carbamoyl)-2-fluoro-3-methylphenyl)-7-(4-((1-(4-(2,4-dioxotetrahydropyrimidin-1(2H)-yl)phenyl)piperidin-4-yl)methyl)piperazin-1-yl)-9,10-dihydro-4H-benzo[d]pyrazolo[1,5-a][1,3]diazepine-3-carboxamide], the IC50 in the test on HEK-293 cells is greater than 10000 nM. It took 3.67 nM to reach half-maximal degradation on BTK (DC50).
In the case of `Cc1ccnc(NC(=O)c2ccc(-c3nn4c(c3C(N)=O)Nc3ccc(N5CCN(CC6CCN(c7ccc(N8CCC(=O)NC8=O)cc7)CC6)CC5)cc3CC4)c(F)c2C)n1` [Example B43, 7-(4-((1-(4-(2,4-dioxotetrahydropyrimidin-1(2H)-yl)phenyl)piperidin-4-yl)methyl)piperazin-1-yl)-2-(2-fluoro-3-methyl-4-((4-methylpyrimidin-2-yl)carbamoyl)phenyl)-9,10-dihydro-4H-benzo[d]pyrazolo[1,5-a][1,3]diazepine-3-carboxamide], the IC50 in the test on HEK-293 cells was greater than 10000 nM. At BTK, this molecule had a 50% degradation concentration (DC50) of 0.543 nM.
The like results for `Cc1c(C(=O)Nc2ccc3[nH]ccc3n2)ccc(-c2nn3c(c2C(N)=O)Nc2ccc(N4CCN(CC5CCN(c6ccc(N7CCC(=O)NC7=O)cc6)CC5)CC4)cc2CC3)c1F` [Example B45, 2-(4-((1H-pyrrolo[3,2-b]pyridin-5-yl)carbamoyl)-2-fluoro-3-methylphenyl)-7-(4-((1-(4-(2,4-dioxotetrahydropyrimidin-1(2H)-yl)phenyl)piperidin-4-yl)methyl)piperazin-1-yl)-9,10-dihydro-4H-benzo[d]pyrazolo[1,5-a][1,3]diazepine-3-carboxamide] were, in that order, greater than 10000 nM and 1.69 nM.
The like results for `Cc1c(-c2nc(-c3ccccn3)no2)ccc(-c2nn3c(c2C(N)=O)Nc2ccc(N4CCN(CC5CCN(c6ccc(N7CCC(=O)NC7=O)cc6)CC5)CC4)cc2CC3)c1F` [Example B46, 7-(4-((1-(4-(2,4-dioxotetrahydropyrimidin-1(2H)-yl)phenyl)piperidin-4-yl)methyl)piperazin-1-yl)-2-(2-fluoro-3-methyl-4-(3-(pyridin-2-yl)-1,2,4-oxadiazol-5-yl)phenyl)-9,10-dihydro-4H-benzo[d]pyrazolo[1,5-a][1,3]diazepine-3-carboxamide] were, in that order, greater than 10000 nM and 15 nM.
The like results for `Cc1c(C(=O)Nc2cnc3ccccc3n2)ccc(-c2nn3c(c2C(N)=O)Nc2ccc(N4CCN(CC5CCN(c6ccc(N7CCC(=O)NC7=O)cc6)CC5)CC4)cc2CC3)c1F` [Example B47, 7-(4-((1-(4-(2,4-dioxotetrahydropyrimidin-1(2H)-yl)phenyl)piperidin-4-yl)methyl)piperazin-1-yl)-2-(2-fluoro-3-methyl-4-(quinoxalin-2-ylcarbamoyl)phenyl)-9,10-dihydro-4H-benzo[d]pyrazolo[1,5-a][1,3]diazepine-3-carboxamide] were, in that order, greater than 10000 nM and 1.9 nM.
As for `Cc1c(C(=O)Nc2cccc(-c3ccccc3)n2)ccc(-c2nn3c(c2C(N)=O)Nc2ccc(N4CCN(CC5CCN(c6ccc(N7CCC(=O)NC7=O)cc6)CC5)CC4)cc2CC3)c1F` [Example B48, 7-(4-((1-(4-(2,4-dioxotetrahydropyrimidin-1(2H)-yl)phenyl)piperidin-4-yl)methyl)piperazin-1-yl)-2-(2-fluoro-3-methyl-4-((6-phenylpyridin-2-yl)carbamoyl)phenyl)-9,10-dihydro-4H-benzo[d]pyrazolo[1,5-a][1,3]diazepine-3-carboxamide], the IC50 in the test with HEK-293 cells was greater than 10000 nM. The same molecule showed a DC50 at BTK of 4.2 nM.

One may read the DC50 as the concentration at which degradation of the target reaches its halfway point.
